Measured values: patent US7138361B2, “Herbicidal heterocycles” (E. I. du Pont de Nemours and Company, priority 2000, dated 2006)

Experiments:
Assay type in all cases: in vivo
[1] = test system: pigweed (Amaranthus retroflexus); test: Test B preemergence
Outline: (§1)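 Greenhouse test: chemicals are formulated in a surfactant-containing non-phytotoxic solvent and applied either preemergence to planted seeds or postemergence to plants 2 to 18 cm tall. Response is rated visually versus controls after 13 to 15 days, 0 meaning no effect and 100 complete control.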

[2] = test system: morning glory (Ipomoea hederacea); test: Test B preemergence
Outline: as §1

corn (Zea mays) [3] = test: Test B preemergence
Outline: as §1

rice (Oryza saliva) [4] = test: Test B preemergence
Outline: as §1

[5] = test system: lambsquarters (Chenopodium album); test: Test B preemergence
Outline: as §1

[6] = test system: velvetleaf (Abutilon theophrasti); test: Test B preemergence
Outline: as §1

[7] = test system: barnyardgrass (Echinochloa crus-galli); test: Test B preemergence
Outline: as §1

[8] = test system: Surinam grass (Brachiaria decumbens); test: Test B preemergence
Outline: as §1

[9] = test system: crabgrass (Digitaria sanguinalis); test: Test B preemergence
Outline: as §1

[10] = test system: cocklebur (Xanthium strumarium); test: Test B preemergence
Outline: as §1

[11] = test system: giant foxtail (Setaria faberii); test: Test B preemergence
Outline: as §1

[12] = test system: smallflower flatsedge (Cyperus difformis); test: Test C flooded paddy test; conditions: for Flatsedge plant response rating: Flooded Paddy, scale 0 to 100, 0 no effect, 100 complete control; for Plant response rating, Flatsedge: flooded paddy test, scale 0 to 100 (0 no effect, 100 complete control)
Outline: (§2)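 Greenhouse-maintained for 12 to 14 days after treatment, the paddy plants (2-leaf stage at application) were scored visually against controls. A score of 0 denotes no effect and a score of 100 denotes complete control.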

[13] = test system: duck salad (Heteranthera limosa); test: Test C flooded paddy test; conditions: for Ducksalad plant response rating: Flooded Paddy, scale 0 to 100, 0 no effect, 100 complete control; for Plant response rating, Ducksalad: flooded paddy test, scale 0 to 100 (0 no effect, 100 complete control)
Outline: as §2

rice (Oryza saliva) [14] = test: Test C flooded paddy test; conditions: for Rice plant response rating: Flooded Paddy, scale 0 to 100, 0 no effect, 100 complete control; for Plant response rating, Rice: flooded paddy test, scale 0 to 100 (0 no effect, 100 complete control)
Outline: as §2

[15] = test system: barnyardgrass (Echinochloa crus-galli); test: Test C flooded paddy test; conditions: for Barnyardgrass plant response rating: Flooded Paddy, scale 0 to 100, 0 no effect, 100 complete control; for Plant response rating, Barnyardgrass: flooded paddy test, scale 0 to 100 (0 no effect, 100 complete control)
Outline: as §2

[16] = test system: wheat (Triticum aestivum); test: Test B postemergence
Outline: as §1

[17] = test system: pigweed (Amaranthus retroflexus); test: Test B postemergence
Outline: as §1

[18] = test system: morning glory (Ipomoea hederacea); test: Test B postemergence
Outline: as §1

corn (Zea mays) [19] = test: Test B postemergence
Outline: as §1

[20] = test system: blackgrass (Alopecurus myosuroides); test: Test B postemergence
Outline: as §1

[21] = test system: lambsquarters (Chenopodium album); test: Test B postemergence
Outline: as §1

[22] = test system: velvetleaf (Abutilon theophrasti); test: Test B postemergence
Outline: as §1

[23] = test system: barnyardgrass (Echinochloa crus-galli); test: Test B postemergence
Outline: as §1

[24] = test system: Surinam grass (Brachiaria decumbens); test: Test B postemergence
Outline: as §1

wild oat (Avena fatua) = test: Test B postemergence
Outline: as §1

[25] = test system: crabgrass (Digitaria sanguinalis); test: Test B postemergence
Outline: as §1

[26] = test system: cocklebur (Xanthium strumarium); test: Test B postemergence
Outline: as §1

[27] = test system: giant foxtail (Setaria faberii); test: Test B postemergence
Outline: as §1

[28] = Preemergence, Rate 500 g/ha, scale 0 to 100, 0 no effect, 100 complete control
[29] = preemergence, Rate 125 g/ha, scale of 0 to 100 where 0 is no effect and 100 is complete control, 13 to 15 days
[30] = Rate 125 g/ha, scale 0 to 100, 0 no effect, 100 complete control
[31] = Rate 500 g/ha, scale 0 to 100, 0 is no effect, 100 is complete control, 13 to 15 days

## CCCCC(CCCC)c1ccn(C2OCN(c3cccc(C(F)(F)F)c3)C2=O)n1 (stereo not shown) [Compound 114]
[1]; [28]
  Plant response rating, Pigweed: 100
[1]; [29]
  Plant response rating, Pigweed: 30
[2]; [28]
  Plant response rating, Morningglory: 30
[2]; [29]
  Plant response rating, Morningglory: 0
Corn (Zea mays) [3]; [28]
  Plant response rating, Corn: 30
Corn (Zea mays) [3]; [29]
  Plant response rating, Corn: 20
Rice (Oryza saliva) [4]; [28]
  Plant response rating, Rice: 0
Rice (Oryza saliva) [4]; [29]
  Plant response rating, Rice: 0
[5]; [28]
  Plant response rating, Lambsquarters: 100
[5]; [29]
  Plant response rating, Lambsquarters: 30
[6]; [28]
  Plant response rating, Velvetleaf: 0
[6]; [29]
  Plant response rating, Velvetleaf: 0
[7]; [28]
  Plant response rating, Barnyardgrass: 0
[7]; [29]
  Plant response rating, Barnyardgrass: 0
[8]; [28]
  Plant response rating, Surinam grass: 0
[8]; [29]
  Plant response rating, Surinam grass: 0
[9]; [28]
  Plant response rating, Crabgrass: 0
[9]; [29]
  Plant response rating, Crabgrass: 0
[10]; [28]
  Plant response rating, Cocklebur: 0
[10]; [29]
  Plant response rating, Cocklebur: 0
[11]; [28]
  Plant response rating, Foxtail, Giant: 0
[11]; [29]
  Plant response rating, Foxtail, Giant: 0
[12]; Rate 250 g/ha
  Flatsedge plant response rating: 0
[12]; Rate 500 g/ha
  Flatsedge plant response rating: 0
[12]; Rate 62 g/ha
  Plant response rating, Flatsedge: 0
[12]; Rate 125 g/ha
  Plant response rating, Flatsedge: 0
[13]; Rate 250 g/ha
  Ducksalad plant response rating: 0
[13]; Rate 500 g/ha
  Ducksalad plant response rating: 0
[13]; Rate 62 g/ha
  Plant response rating, Ducksalad: 0
[13]; Rate 125 g/ha
  Plant response rating, Ducksalad: 0
Rice (Oryza saliva) [14]; Rate 250 g/ha
  Rice plant response rating: 0
Rice (Oryza saliva) [14]; Rate 500 g/ha
  Rice plant response rating: 0
Rice (Oryza saliva) [14]; Rate 62 g/ha
  Plant response rating, Rice: 0
Rice (Oryza saliva) [14]; Rate 125 g/ha
  Plant response rating, Rice: 0
[15]; Rate 250 g/ha
  Barnyardgrass plant response rating: 0
[15]; Rate 500 g/ha
  Barnyardgrass plant response rating: 0
[15]; Rate 62 g/ha
  Plant response rating, Barnyardgrass: 0
[15]; Rate 125 g/ha
  Plant response rating, Barnyardgrass: 0
[16]; [30]
  Plant response rating, Wheat: 20
[16]; [31]
  Plant response rating, Wheat: 30
[17]; [30]
  Plant response rating, Pigweed: 90
[17]; [31]
  Plant response rating, Pigweed: 100
[18]; [30]
  Plant response rating, Morningglory: 30
[18]; [31]
  Plant response rating, Morningglory: 60
Corn (Zea mays) [19]; [30]
  Plant response rating, Corn: 0
Corn (Zea mays) [19]; [31]
  Plant response rating, Corn: 0
[20]; [30]
  Plant response rating, Blackgrass: 0
[20]; [31]
  Plant response rating, Blackgrass: 0
[21]; [30]
  Plant response rating, Lambsquarters: 90
[21]; [31]
  Plant response rating, Lambsquarters: 100
[22]; [30]
  Plant response rating, Velvetleaf: 0
[22]; [31]
  Plant response rating, Velvetleaf: 0
[23]; [30]
  Plant response rating, Barnyardgrass: 0
[23]; [31]
  Plant response rating, Barnyardgrass: 20
[24]; [30]
  Plant response rating, Surinam grass: 30
[24]; [31]
  Plant response rating, Surinam grass: 30
Wild oat (Avena fatua); [30]
  Plant response rating, Wild Oat: 30
Wild oat (Avena fatua); [31]
  Plant response rating, Wild Oat: 50
[25]; [30]
  Plant response rating, Crabgrass: 20
[25]; [31]
  Plant response rating, Crabgrass: 30
[26]; [30]
  Plant response rating, Cocklebur: 50
[26]; [31]
  Plant response rating, Cocklebur: 60
[27]; [30]
  Plant response rating, Foxtail, Giant: 0
[27]; [31]
  Plant response rating, Foxtail, Giant: 0
